According to US9278068B2, “Vesicle compositions” (Sensulin LLC, priority 2011, dated 2016):

Key:
HeLa cells = test: MTT assay for cytotoxicity; details: 2 h
Procedure: The cytotoxicity of the boronic acid derivatives from Table 1 was studied by MTT assay. 150,000 HeLa cells were plated in 96 well plates on the night before the experiments. On the day of experiments, the cells were treated with the boronic acid derivatives at three different concentrations (40 nM, 80 nM, and 160 nM) for 2 h. At the end of the incubation, MTT assays (In-Vitro toxicology MTT based assay kit, Sigma Aldrich, MO) were performed according to the manufacturer's protocol.

NF-κB = NF-κB assay for inflammation (nuclear translocation of NF-κB, immunocytochemistry, PCC); details: HeLa cells; for Inflammation (PCC) 40 nM / Inflammation (PCC) 80 nM / Inflammation (PCC) 160 nM: 2 h, PCC between nuclear and cytoplasmic fraction of NF-κB
Procedure: 15,000 HeLa cells were plated in 96 well plates the night before the experiments. On the day of the experiments, the cells were treated with the boronic acids (Table 1, below) at three different concentrations (40 nM, 80 nM, and 160 nM) for 2 h. At the end of the incubation, cells were washed with phosphate buffered saline (PBS) and were fixed in 4% paraformaldehyde for 15 min and permeablized with 0.01% Triton X-100 in PBS for 10 min. The cells were washed with PBS three times. Nonspecific sites were blocked with 5% bovine serum albumin (BSA) in PBS and incubated with the Anti-NF-κB for 1 h, followed by incubation with fluorescein isothiocyanate (FITC)-labeled secondary antibody. After washing the cells at the end of the incubation, the cells were treated with 4′,6-diamidino-2-phenylindole (DAPI) for 1 min and kept at 4° C. until further analysis. Images of the cells were acquired with a Beckman-Coulter 100 automated high-throughput microscope system and analyzed using Cytseer software (Vala Sciences, CA). The co-localization of NF-κB was quantified by measuring the PCC between the nuclear and cytoplasmic fraction of the NF-κB molecule. The PCC is a measure of the overlap between the pixel intensities of the nuclear and NF-κB images of the same cell. The PCC values can range from −1 to 1. […] A negative correlation (negative PCC value) indicates an absence of nuclear translocation.

With `COc1ccc(F)cc1B(O)O` [5-fluoro-2-methoxyphenylboronic acid] the “MTT (% Cell Survival) 40 nM” value (HeLa cells) was 84.22%, the “MTT (% Cell Survival) 80 nM” value (HeLa cells) was 84.22% and the “MTT (% Cell Survival) 160 nM” value (HeLa cells) was 54.92%. The “Inflammation (PCC) 40 nM” value (NF-κB) was −0.0169, the “Inflammation (PCC) 80 nM” value (NF-κB) was 0.02474 and the “Inflammation (PCC) 160 nM” value (NF-κB) was 0.2936.
With `O=Cc1ccc(B(O)O)o1` [5-formyl-2-furanboronic acid] the “MTT (% Cell Survival) 40 nM” value (HeLa cells) was 77.18%, the “MTT (% Cell Survival) 80 nM” value (HeLa cells) was 94.08% and the “MTT (% Cell Survival) 160 nM” value (HeLa cells) was 50.14%. For the same compound, the “Inflammation (PCC) 40 nM” value (NF-κB) was 0.00989, the “Inflammation (PCC) 80 nM” value (NF-κB) was −0.0122 and the “Inflammation (PCC) 160 nM” value (NF-κB) was 0.1132.
With `OB(O)c1cccc2cnccc12` [5-isoquinolineboronic acid] the “MTT (% Cell Survival) 40 nM” value (HeLa cells) was 75.80%, the “MTT (% Cell Survival) 80 nM” value (HeLa cells) was 60.84% and the “MTT (% Cell Survival) 160 nM” value (HeLa cells) was 41.69%. The “Inflammation (PCC) 40 nM” value (NF-κB) was −0.0412, the “Inflammation (PCC) 80 nM” value (NF-κB) was 0.02463 and the “Inflammation (PCC) 160 nM” value (NF-κB) was 0.2784. For the same compound, the “nuclear or cytoplasmic localization of NF-κB (FIG. 4 images)” value (NF-κB; boronic acids 80 nM, 2 hrs, LPS positive control) was “predominantly nuclear NF-κB”.
With `CC(C)(C)OC(=O)n1cccc1B(O)O` [N-boc-2-pyrroleboronic acid] the “MTT (% Cell Survival) 40 nM” value (HeLa cells) was 60.6873%, the “MTT (% Cell Survival) 80 nM” value (HeLa cells) was 51.264% and the “MTT (% Cell Survival) 160 nM” value (HeLa cells) was 39.41%. The “Inflammation (PCC) 40 nM” value (NF-κB) was −0.0675, the “Inflammation (PCC) 80 nM” value (NF-κB) was 0.05743 and the “Inflammation (PCC) 160 nM” value (NF-κB) was 0.1837.
`Cn1c(B(O)O)cc2ccccc21` [N-methylindole-2-boronic acid] was tested, and the “MTT (% Cell Survival) 40 nM” value (HeLa cells) was 63.3131%, the “MTT (% Cell Survival) 80 nM” value (HeLa cells) was 63.6075% and the “MTT (% Cell Survival) 160 nM” value (HeLa cells) was 47.46%. For the same compound, the “Inflammation (PCC) 40 nM” value (NF-κB) was −0.126, the “Inflammation (PCC) 80 nM” value (NF-κB) was 0.00746 and the “Inflammation (PCC) 160 nM” value (NF-κB) was 0.1336.
For `OB(O)C1=CCCC1` [cyclopenten-1-yl boronic acid], the “MTT (% Cell Survival) 40 nM” value (HeLa cells) was 99.21%, the “MTT (% Cell Survival) 80 nM” value (HeLa cells) was 79.90% and the “MTT (% Cell Survival) 160 nM” value (HeLa cells) was 68.16%. The “Inflammation (PCC) 40 nM” value (NF-κB) was −0.0551, the “Inflammation (PCC) 80 nM” value (NF-κB) was 0.01168 and the “Inflammation (PCC) 160 nM” value (NF-κB) was 0.1634.
In the case of `OB(O)C1CC1` [cyclopropylboronic acid], the “MTT (% Cell Survival) 40 nM” value (HeLa cells) is reported as 81.55%, the “MTT (% Cell Survival) 80 nM” value (HeLa cells) is reported as 107.79% and the “MTT (% Cell Survival) 160 nM” value (HeLa cells) is reported as 80.01%. The “Inflammation (PCC) 40 nM” value (NF-κB) was −0.0484, the “Inflammation (PCC) 80 nM” value (NF-κB) was 0.03475 and the “Inflammation (PCC) 160 nM” value (NF-κB) was 0.1705.
`CC(C)OB(CBr)OC(C)C` [diisopropyl(bromomethyl)boronate] was tested, and the “MTT (% Cell Survival) 40 nM” value (HeLa cells) was 81.27%, the “MTT (% Cell Survival) 80 nM” value (HeLa cells) was 96.62% and the “MTT (% Cell Survival) 160 nM” value (HeLa cells) was 79.32%. The “Inflammation (PCC) 40 nM” value (NF-κB) was −0.0205, the “Inflammation (PCC) 80 nM” value (NF-κB) was 0.02739 and the “Inflammation (PCC) 160 nM” value (NF-κB) was 0.1157.
For `OB(O)c1c(F)c(F)c(F)c(F)c1F` [pentafluorophenylboronic acid], the “MTT (% Cell Survival) 40 nM” value (HeLa cells) was 65.63%, the “MTT (% Cell Survival) 80 nM” value (HeLa cells) was 60.00% and the “MTT (% Cell Survival) 160 nM” value (HeLa cells) was 50.98%. The “Inflammation (PCC) 40 nM” value (NF-κB) was 0.0154, the “Inflammation (PCC) 80 nM” value (NF-κB) was 0.0762 and the “Inflammation (PCC) 160 nM” value (NF-κB) was 0.2584.
In the case of `OB(O)c1cccc2c1Sc1ccccc1S2` [thianthrene-1-boronic acid], the “MTT (% Cell Survival) 40 nM” value (HeLa cells) is reported as 64.19%, the “MTT (% Cell Survival) 80 nM” value (HeLa cells) is reported as 61.32% and the “MTT (% Cell Survival) 160 nM” value (HeLa cells) is reported as 81.10%. The “Inflammation (PCC) 40 nM” value (NF-κB) was −0.0683, the “Inflammation (PCC) 80 nM” value (NF-κB) was 0.0268 and the “Inflammation (PCC) 160 nM” value (NF-κB) was 0.1094.
For `OB(O)/C=C/c1ccccc1` [trans-2-Phenylvinylboronic acid], the “MTT (% Cell Survival) 40 nM” value (HeLa cells) was 72.90%, the “MTT (% Cell Survival) 80 nM” value (HeLa cells) was 99.51% and the “MTT (% Cell Survival) 160 nM” value (HeLa cells) was 65.87%. The “Inflammation (PCC) 40 nM” value (NF-κB) was −0.1303, the “Inflammation (PCC) 80 nM” value (NF-κB) was 0.1523 and the “Inflammation (PCC) 160 nM” value (NF-κB) was 0.
In the case of `O=c1[nH]cc(B(O)O)c(=O)[nH]1` [uracil-5-boronic acid], the “MTT (% Cell Survival) 40 nM” value (HeLa cells) is reported as 68.5083%, the “MTT (% Cell Survival) 80 nM” value (HeLa cells) is reported as 50.3499% and the “MTT (% Cell Survival) 160 nM” value (HeLa cells) is reported as 28.07%. For the same compound, the “Inflammation (PCC) 40 nM” value (NF-κB) was −0.0586, the “Inflammation (PCC) 80 nM” value (NF-κB) was 0.00516 and the “Inflammation (PCC) 160 nM” value (NF-κB) was −0.01522.
